{"source": "ChEMBL document CHEMBL1142650", "about": "“Novel transient receptor potential vanilloid 1 receptor antagonists for the treatment of pain: structure-activity relationships for ureas with quinoline, isoquinoline, quinazoline, phthalazine, quinoxaline, and cinnoline moieties” (J Med Chem, 2005)", "key": {"[1]": {"target": "Transient receptor potential cation channel subfamily V member 1 (Rattus norvegicus, UniProt O35433)", "sequence (O35433 whole entry)": "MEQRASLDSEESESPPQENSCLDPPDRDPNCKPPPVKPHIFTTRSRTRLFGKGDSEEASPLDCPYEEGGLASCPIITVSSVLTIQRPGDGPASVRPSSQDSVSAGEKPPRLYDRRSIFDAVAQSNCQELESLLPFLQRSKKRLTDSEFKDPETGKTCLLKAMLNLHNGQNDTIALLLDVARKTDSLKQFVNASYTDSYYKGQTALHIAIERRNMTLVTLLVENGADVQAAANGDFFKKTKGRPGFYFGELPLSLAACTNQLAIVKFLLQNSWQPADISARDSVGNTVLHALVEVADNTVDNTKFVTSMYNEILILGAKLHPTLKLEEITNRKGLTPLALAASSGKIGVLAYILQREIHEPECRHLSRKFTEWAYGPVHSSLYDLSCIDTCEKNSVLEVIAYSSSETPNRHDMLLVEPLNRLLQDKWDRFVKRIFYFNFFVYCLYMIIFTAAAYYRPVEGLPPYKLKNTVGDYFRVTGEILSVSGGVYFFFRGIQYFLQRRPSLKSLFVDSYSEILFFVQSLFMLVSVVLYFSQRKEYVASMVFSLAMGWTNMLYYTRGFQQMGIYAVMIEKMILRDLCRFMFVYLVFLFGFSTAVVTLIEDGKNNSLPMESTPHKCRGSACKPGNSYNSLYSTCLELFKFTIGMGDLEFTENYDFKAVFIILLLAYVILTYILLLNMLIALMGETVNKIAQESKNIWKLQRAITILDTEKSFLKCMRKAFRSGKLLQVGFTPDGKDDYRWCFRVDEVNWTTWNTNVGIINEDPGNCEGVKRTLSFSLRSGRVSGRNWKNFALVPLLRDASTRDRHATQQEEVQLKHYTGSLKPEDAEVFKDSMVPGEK", "experiment": "Inhibition of binding to rat transient receptor potential vanilloid 1 receptor"}, "[2]": {"experiment": "Plasma protein binding in rat", "format": "ADME, cell-free", "conditions": "read-out: Plasma protein binding (converted)"}, "[3]": {"experiment": "Half life in rat", "format": "ADME", "conditions": "in vivo"}, "[4]": {"experiment": "Volume of distribution in rat", "format": "ADME, organism-based", "conditions": "in vivo, read-out: Vbeta"}, "[5]": {"experiment": "Maximum concentration in rat", "format": "ADME, organism-based", "conditions": "in vivo"}, "[6]": {"target": "Transient receptor potential cation channel subfamily V member 1 (Homo sapiens, UniProt Q8NER1)", "sequence (Q8NER1 whole entry)": "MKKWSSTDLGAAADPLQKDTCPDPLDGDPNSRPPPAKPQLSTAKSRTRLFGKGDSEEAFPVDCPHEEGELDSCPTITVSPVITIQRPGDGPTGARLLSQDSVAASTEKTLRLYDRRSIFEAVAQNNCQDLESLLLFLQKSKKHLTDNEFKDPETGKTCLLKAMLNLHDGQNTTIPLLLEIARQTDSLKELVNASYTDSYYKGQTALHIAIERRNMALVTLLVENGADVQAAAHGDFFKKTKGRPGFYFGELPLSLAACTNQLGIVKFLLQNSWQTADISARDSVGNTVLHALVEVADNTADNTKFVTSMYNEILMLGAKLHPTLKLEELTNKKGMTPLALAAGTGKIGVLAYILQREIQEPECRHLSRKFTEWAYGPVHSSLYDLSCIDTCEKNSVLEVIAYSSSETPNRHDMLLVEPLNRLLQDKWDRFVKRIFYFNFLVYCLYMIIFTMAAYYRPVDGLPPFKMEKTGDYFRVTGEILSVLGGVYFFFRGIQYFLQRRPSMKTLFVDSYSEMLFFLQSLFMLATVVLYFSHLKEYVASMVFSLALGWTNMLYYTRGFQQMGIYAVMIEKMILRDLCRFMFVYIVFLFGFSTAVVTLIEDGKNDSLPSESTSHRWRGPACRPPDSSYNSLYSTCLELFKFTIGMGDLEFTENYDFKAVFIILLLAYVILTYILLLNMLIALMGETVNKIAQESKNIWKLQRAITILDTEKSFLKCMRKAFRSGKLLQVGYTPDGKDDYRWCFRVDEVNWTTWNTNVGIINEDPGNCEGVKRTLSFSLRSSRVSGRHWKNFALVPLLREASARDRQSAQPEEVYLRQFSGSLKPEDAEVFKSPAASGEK", "experiment": "Inhibition of binding to human vanilloid receptor subtype VR1"}, "Rattus norvegicus": {"organism": "Rattus norvegicus", "experiment": "Concentration required to reduce thermal hyperalgesia in the complete Freund's adjuvant (CFA) model of chronic inflammatory pain", "format": "functional"}, "[7]": {"experiment": "Plasma protein binding in human", "format": "ADME, cell-free", "conditions": "read-out: Plasma protein binding (converted)"}}}
{"compound": "O=C(NCc1ccc(C(F)(F)F)cc1)Nc1cccc2cnccc12", "values": [{"measurement": "IC50", "setting": "[1]", "value": 24, "unit": "nM"}, {"measurement": "fraction unbound", "setting": "[2]", "value": 0.029}, {"measurement": "half-life", "setting": "[3]", "value": 36, "unit": "min"}, {"measurement": "Vd", "setting": "[4]", "value": 0.6, "unit": "L/kg"}, {"measurement": "Cmax", "setting": "[5]", "value": 3000, "unit": "ng/mL"}, {"measurement": "IC50", "setting": "[6]", "value": 4, "unit": "nM"}, {"measurement": "ED50", "setting": "Rattus norvegicus", "value": 30, "unit": "µmol/kg"}, {"measurement": "fraction unbound", "setting": "[7]", "value": 0.02}]}
{"compound": "CSc1cccc(NC(=O)Nc2cccc3ccc(O)cc23)c1", "values": [{"measurement": "IC50", "setting": "[6]", "value": 22, "unit": "nM"}]}
{"compound": "O=C(NCCc1cccc(C(F)(F)F)c1)Nc1cccc2cnccc12", "values": [{"measurement": "IC50", "setting": "[6]", "value": 20, "unit": "nM"}]}
{"compound": "O=C(NCc1cccc(C(F)(F)F)c1)Nc1cccc2cnccc12", "values": [{"measurement": "IC50", "setting": "[6]", "value": 51, "unit": "nM"}]}
